Assay results: US7902237B2, “Heterocyclic compounds as pharmaceutical agents” (Exelixis, Inc., priority 2004, dated 2011)
Read-outs that look alike come from different tables or passages of the source.

Assays:
[1] = molecular target: T1, full length human farnesoid X receptor (Homo sapiens, UniProt Q96RI1); assay: farnesoid X receptor/ECREx7 co-transfection assay; type: cell-based; details: for EC50: CV-1 cells; for Emax: agonist efficacy relative to chenodeoxycholic acid (CDCA) maximum response
T1 construct: CMX-farnesoid X receptor (full length human farnesoid X receptor); expressed in transfected cells; host or cells: CV-1 African Green Monkey Kidney cells
T1 sequence (Q96RI1 1-472 isoform Q96RI1-2): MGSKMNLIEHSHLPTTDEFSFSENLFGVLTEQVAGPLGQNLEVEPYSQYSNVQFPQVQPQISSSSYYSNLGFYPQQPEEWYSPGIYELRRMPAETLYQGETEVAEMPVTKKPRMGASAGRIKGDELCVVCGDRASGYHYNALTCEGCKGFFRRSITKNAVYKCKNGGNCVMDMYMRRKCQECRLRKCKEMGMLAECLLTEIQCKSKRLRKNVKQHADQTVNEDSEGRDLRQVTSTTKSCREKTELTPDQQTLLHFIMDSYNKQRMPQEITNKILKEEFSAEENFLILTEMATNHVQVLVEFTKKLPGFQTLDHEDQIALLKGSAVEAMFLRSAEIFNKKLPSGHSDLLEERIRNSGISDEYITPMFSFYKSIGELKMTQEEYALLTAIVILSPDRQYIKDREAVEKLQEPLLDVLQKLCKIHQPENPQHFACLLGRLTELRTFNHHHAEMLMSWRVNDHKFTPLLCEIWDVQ
T1 sequence (P19793 1-462 partner): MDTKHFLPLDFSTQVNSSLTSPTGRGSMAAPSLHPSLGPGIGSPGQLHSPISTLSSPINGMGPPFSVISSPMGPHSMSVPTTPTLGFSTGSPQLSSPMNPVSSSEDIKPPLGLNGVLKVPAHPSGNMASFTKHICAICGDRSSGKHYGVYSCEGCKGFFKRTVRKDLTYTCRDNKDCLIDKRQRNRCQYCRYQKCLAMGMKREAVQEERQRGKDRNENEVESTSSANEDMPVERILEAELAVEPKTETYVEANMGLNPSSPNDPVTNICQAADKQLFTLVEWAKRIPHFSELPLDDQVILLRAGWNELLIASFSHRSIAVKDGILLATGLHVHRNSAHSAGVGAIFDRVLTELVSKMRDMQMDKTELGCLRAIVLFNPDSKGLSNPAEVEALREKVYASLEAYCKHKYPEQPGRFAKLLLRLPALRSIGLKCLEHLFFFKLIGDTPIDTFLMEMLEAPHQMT
Description: (§1) The basic co-transfection protocol for measuring the farnesoid X receptor activity is as follows. CV-1 African Green Monkey Kidney cells were plated 24 hours before transfection to achieve approximately 70-80 percent confluency. Cells were transfected with the following expression vectors, CMX-farnesoid X receptor (full length human farnesoid X receptor), CMX-7RXRα (full length human RXR), Luc12 (ECREx7-Tk-Luciferase) luciferase reporter gene construct. (See WO 00/76523, Venkateswaran et al., (2000) J. Biol. Chem. 275 14700-14707). A CMX-β-Galactosidase expression vector was used as a transfection control. The transfection reagent used was DOTAP (Boehringer Mannheim). Cells were incubated with the DOTAP/DNA mixture for 5 hours after which the cells were harvested and plated onto either 96 well or 384 well plates containing the appropriate concentration of test compound. The assay was allowed to continue for an additional 18-20 hours, after which the cells were lysed, with lysis buffer (1% triton X 100, 10% glycerol, 5 mM Dithiothreitol, 1 mM EGTA, 25 mM Tricine, pH 7.8) and the luciferase activity measured in the presence of Luciferase assay buffer (0.73 mM ATP, 22.3 mM Tricine, 0.11 mM EGTA, 0.55 mM Luciferin, 0.15 mM Coenzyme A, 0.5 mM HEPES, 10 mM Magnesium sulphate) on a standard luminomter plate reader (PE Biosystems, NorthStar Reader), using recommended operating instructions and conditions
(§2) Both the farnesoid X receptor/ECREx7 co-transfection assay (Example 9) and the TR-FRET assay (Example 8) can be used to establish the EC50/IC50 values for potency and percent activity or inhibition for efficacy. Efficacy defines the activity of a compound relative to a high control (chenodeoxycholic acid, CDCA) or a low control (DMSO/vehicle). The dose response curves are generated from an 8 point curve with concentrations differing by ½ LOG units. Each point represents the average of 4 wells of data from a 384 well plate. The curve for the data is generated by using the equation: Y=Bottom+(Top−Bottom)/(1+10^((Log EC50−X)*HillSlope))
The EC50/IC50 is therefore defined as the concentration at which an agonist or antagonist elicits a response that is half way between the Top (maximum) and Bottom (baseline) values. The EC50/IC50 values represented are the averages of at least 3 independent experiments. The determination of the relative efficacy or % control for an agonist is by comparison to the maximum response achieved by chenodeoxycholic acid that is measured individually in each dose response experiment. […]

farnesoid X receptor = molecular target: T2, farnesoid X receptor (Homo sapiens, UniProt Q96RI1); assay: one or more of the in vitro assays described herein (TR-FRET assay and/or co-transfection assay); details: for Emax: agonist efficacy relative to CDCA, read-out: efficacy (first value, goes with EC50); for IC50: antagonist mode against CDCA, read-out: IC50 (apparent partial agonist activity); for EC50: read-out: EC50 (apparent partial agonist activity)
T2 sequence (Q96RI1 258-485): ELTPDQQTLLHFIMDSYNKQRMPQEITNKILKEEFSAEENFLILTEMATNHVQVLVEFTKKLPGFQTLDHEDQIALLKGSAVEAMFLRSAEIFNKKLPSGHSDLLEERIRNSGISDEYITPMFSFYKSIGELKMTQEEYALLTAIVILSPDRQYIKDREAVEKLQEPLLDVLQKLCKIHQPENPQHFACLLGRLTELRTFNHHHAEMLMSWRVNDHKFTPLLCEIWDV
Description: The TR-FRET assay was performed by incubating 8 nM of GST-farnesoid X receptor-LBD (comprising […] fused in frame to the farnesoid X receptor ligand binding domain, (amino acids 244-471 of the human farnesoid X receptor)), 8 nM of Europium-labeled anti-GST antibody (Wallac/PE Life Sciences Cat#AD0064), 16 nM biotin-SRC-1 peptide [5′-biotin-[…]-CONH2], 20 nM APC-SA [allophycocyanin conjugated streptavidin] (Wallac/PE Life Sciences, Cat# AD0059A) in FRET assay buffer (20 mM KH2PO4/K2HPO4 (pH 7.3), 150 mM NaCl, 2 mM CHAPS, 2 mM EDTA, 1 mM DTT) in the presence of the test compound(s) for 2-4 hours at room temperature in a 384 well assay plate. Data was collected using an LJL Analyst using the standard operating instructions and conditions with readings at emission wavelengths of 615 nm and 665 nm after a delay of 65 μs and an excitation wavelength of 330 nm.
as §1, §2
The EC50/IC50 is therefore defined as the concentration at which an agonist or antagonist elicits a response that is half way between the Top (maximum) and Bottom (baseline) values. The EC50/IC50 values represented are the averages of at least 3 independent experiments. The determination of the relative efficacy or % control for an agonist is by comparison to the maximum response achieved by chenodeoxycholic acid that is measured individually in each dose response experiment.
For the antagonist assay, CDCA is added to each well of a 384 well plate to elicit a response. The % inhibition for each antagonist is therefore a measurement of the inhibition of the activity of CDCA. In this example, 100% inhibition would indicate that the activity of CDCA has been reduced to baseline levels, defined as the activity of the assay in the presence of DMSO only.

[2] = read-out: agonist activity EC50

SMILES: CCNc1ccc(C(C)=O)cc1/N=C1\S/C(=C\N(C)Cc2ccccc2)C(=O)N1Cc1ccccc1 [No. 4, (2Z,5Z)-2-{[5-acetyl-2-(ethylamino)phenyl]imino}-5-{[methyl(phenylmethyl)amino]methylidene}-3-(phenylmethyl)-1,3-thiazolidin-4-one]
- EC50 [1, 2]: ≤ 1000 nM
- Emax [1]: 50 to 100%
- Emax (farnesoid X receptor): 40 to 50%
- IC50 (farnesoid X receptor): 300 to 500 nM
- EC50 (farnesoid X receptor): ~1000 nM

SMILES: CCNc1ccc(C(C)=O)cc1/N=C1\S/C(=C\c2ccccc2)C(=O)N1Cc1ccccc1 [No. 23]
- EC50 [1, 2]: ≤ 1000 nM
- Emax [1]: 50 to 100%

SMILES: CCNc1ccc(C(C)=O)cc1/N=C1\S/C(=C\N2CCc3ccccc32)C(=O)N1Cc1ccccc1 [No. 6, (2Z,5Z)-2-{[5-acetyl-2-(ethylamino)phenyl]imino}-5-(2,3-dihydro-1H-indol-1-ylmethylidene)-3-(phenylmethyl)-1,3-thiazolidin-4-one]
- EC50 ([1]; read-out: agonist activity): < 100 nM
- Emax [1]: > 100%

SMILES: CCNc1ccc(C(C)=O)cc1/N=C1\S/C(=C\c2ccco2)C(=O)N1Cc1ccccc1 [No. 24, (2Z,5Z)-2-{[5-acetyl-2-(ethylamino)phenyl]imino}-5-(furan-2-ylmethylidene)-3-(phenylmethyl)-1,3-thiazolidin-4-one]
- EC50 [1, 2]: ≤ 1000 nM
- Emax [1]: 50 to 100%

SMILES: CCNc1ccc(C(C)=O)cc1/N=C1\S/C(=C\N(C)c2ccccc2)C(=O)N1Cc1ccccc1 [No. 2, (2Z,5Z)-2-{[5-acetyl-2-(ethylamino)phenyl]imino}-5-{[methyl(phenyl)amino]methylidene)-3-(phenylmethyl)-1,3-thiazolidin-4-one]
- EC50 [1, 2]: ≤ 1000 nM
- Emax [1]: 50 to 100%

SMILES: CCNc1ccc(C(C)=O)cc1/N=C1\S/C(=C\N(C)CCc2ccccc2)C(=O)N1Cc1ccccc1 [No. 19, (2Z,5Z)-2-{[5-acetyl-2-(ethylamino)phenyl]imino}-5-{[methyl(2-phenylethyl)amino]methylidene}-3-(phenylmethyl)-1,3-thiazolidin-4-one]
- EC50 [1, 2]: ≤ 1000 nM
- Emax [1]: 50 to 100%

SMILES: CCNc1ccc(C#N)cc1/N=C1\S/C(=C\N2CCc3ccccc32)C(=O)N1Cc1ccccc1 [No. 5, 3-{[(2Z,5Z)-5-(2,3-dihydro-1H-indol-1-ylmethylidene)-4-oxo-3-(phenylmethyl)-1,3-thiazolidin-2-ylidene]amino}-4-(ethylamino)benzonitrile]
- EC50 ([1]; read-out: agonist activity): < 200 nM
- Emax [1]: ≥ 100%

SMILES: CCNc1ccc(C#N)cc1/N=C1\S/C(=C\N(C)c2ccc(OC)cc2)C(=O)N1Cc1ccccc1 [No. 12, 4-(ethylamino)-3-{[(2Z,5Z)-5-({methyl[4-(methyloxy)phenyl]amino}methylidene)-4-oxo-3-(phenylmethyl)-1,3-thiazolidin-2-ylidene]amino} benzonitrile]
- Emax (farnesoid X receptor): 40 to 50%
- IC50 (farnesoid X receptor): 300 to 500 nM
- EC50 (farnesoid X receptor): ~1000 nM

SMILES: CC(=O)Nc1ccc(/N=C2\S/C(=C\N3CCc4ccccc43)C(=O)N2Cc2ccco2)cc1 [No. 8, N-(4-{[(2Z,5Z)-5-(2,3-dihydro-1H-indol-1-ylmethylidene)-3-(furan-2-ylmethyl)-4-oxo-1,3-thiazolidin-2-ylidene]amino}phenyl)acetamide]
- EC50 [1, 2]: ≤ 1000 nM
- Emax [1]: 50 to 100%

SMILES: CCNc1ccc(C(C)=O)cc1/N=C1\S/C(=C\N(C)c2cccc(OC)c2)C(=O)N1Cc1ccccc1 [No. 15, (2Z,5Z)-2-{[5-acetyl-2-(ethylamino)phenyl]imino}-5-({methyl[3-(methyloxy)phenyl]amino}methylidene)-3-(phenylmethyl)-1,3-thiazolidin-4-one]
- EC50 ([1]; read-out: agonist activity): < 200 nM
- Emax [1]: ≥ 100%

SMILES: CC(=O)c1cccc(/N=C2\S/C(=C\N3CCc4ccccc43)C(=O)N2Cc2ccco2)c1 [No. 7, (2Z,5Z)-2-[(3-acetylphenyl)imino]-5-(2,3-dihydro-1H-indol-1-ylmethylidene)-3-(furan-2-ylmethyl)-1,3-thiazolidin-4-one]
- EC50 [1, 2]: ≤ 1000 nM
- Emax [1]: 50 to 100%
